Results on 23 molecules are retold here after patent US9062046B2, “Substituted imidazoquinoline derivatives as kinase inhibitors” (Piramal Enterprises Limited, priority 2011, dated 2015).

Experiment [1] relates to A2780 (ovarian cell line). In words: Cytotoxicity assay (propidium iodide assay), A2780. The experiment is classed as cell-based. To be noted: Homo sapiens, A2780 cells, 48 h treatment. As for the experimental part: (§1) The assay was designed as in the reference, Anticancer Drugs, 2002, 13, 1-8, the disclosure of which is incorporated by reference for the teaching of the assay.
(§2) Cells from cell lines A2780 (ovarian cell line) and PC3 (prostate cell line) (both from ATCC) were seeded at a density of 3000 cells/well in a white opaque 96-well plate. Following incubation at 37° C./5% CO2 for a period of 18-24 h, the cells were treated with various concentrations (stock solution was prepared in DMSO and subsequent dilutions were made in media as per ATCC guidelines) of the test compounds for a period of 48 h. At the end of treatment, the culture medium was discarded, the cells were washed with 1×PBS and 200 μl of 7 μg/ml propidium iodide was added to each well. The plates were frozen at −70° C. overnight. For analysis, the plates were warmed to RT, allowed to thaw and were read in PoleStar fluorimeter with the fluorescence setting. The percentage of viable cells in the non-treated set of wells was considered to be 100 and the percentage viability following treatment was calculated accordingly. IC50 values were calculated from graphs plotted using these percentages.

The subject of experiment [2] is PC3 (prostate cell line). Put plainly: Cytotoxicity assay (propidium iodide assay), PC3. It is filed as cell-based. The note with it: Homo sapiens, PC-3, PC3 cells, 48 h treatment. As to the method:
as §1, §2

Take `Cn1c(=NC#N)n(-c2ccc(C(C)(C)C#N)nc2)c2c3cc(-c4cccc5ccccc45)ccc3ncc21` [Example 82, N-(1-(6-(2-cyanopropan-2-yl)pyridin-3-yl)-3-methyl-8-(naphthalen-1-yl)-1H-imidazo[4,5-c]quinolin-2(3H)-ylidene)cyanamide]: the inhibition (usually the share of the control response that was lost under treatment) at 1 µM is 30 to 70% in experiment [1] and less than 30% in experiment [2].
For `Cn1c(=NC#N)n(-c2ccc(C(C)(C)C#N)nc2)c2c3cc(-c4ccc5c(c4)OCO5)ccc3ncc21` [Example 54, N-(8-(benzo[d][1,3]dioxol-5-yl)-1-(6-(2-cyanopropan-2-yl)pyridin-3-yl)-3-methyl-1H-imidazo[4,5-c]quinolin-2(3H)-ylidene)cyanamide] the same measures were 30 to 70% and less than 30%.
`COc1ncc(-c2ccc3ncc4c(c3c2)n(-c2ccc(C(C)(C)C#N)cc2)c(=NC#N)n4C)cc1NS(=O)(=O)c1ccccc1` [Example 124, N-(5-(2-(cyanoimino)-1-(4-(2-cyanopropan-2-yl)phenyl)-3-methyl-2,3-dihydro-1H-imidazo[4,5-c]quinolin-8-yl)-2-methoxypyridin-3-yl)benzenesulfonamide]: the inhibition at 1 µM in experiment [1] and in experiment [2] was not below 70% throughout.
With `COc1ccc(-n2c(=NC#N)n(C)c3cnc4ccc(-c5cnc(N)c(C(F)(F)F)c5)cc4c32)c(Cl)n1` [Example 4, N-(8-(6-amino-5-(trifluoromethyl)pyridin-3-yl)-1-(2-chloro-6-methoxypyridin-3-yl)-3-methyl-1H-imidazo[4,5-c]quinolin-2(3H)-ylidene)cyanamide], the IC50 in experiment [1] and in experiment [2] was not above 0.5 µM throughout.
In the case of `COc1ccc(-n2c(=NC#N)n(C)c3cnc4ccc(-c5ccc6cccnc6c5)cc4c32)cn1` [Example 26, N-(1-(6-methoxypyridin-3-yl)-3-methyl-8-(quinolin-7-yl)-1H-imidazo[4,5-c]quinolin-2(3H)-ylidene)cyanamide], the inhibition at 1 µM in experiment [1] was not below 70%; in experiment [2], 30 to 70%.
With `CC(=O)N(C(C)=O)c1ncc(-c2ccc3ncc4c(c3c2)n(-c2ccc(C(C)(C)C#N)nc2)c(=NC#N)n4C)cc1C(F)(F)F` [Example 132, N-acetyl-N-(5-(2-(cyanoimino)-1-(6-(2-cyanopropan-2-yl)pyridin-3-yl)-3-methyl-2,3-dihydro-1H-imidazo[4,5-c]quinolin-8-yl)-3-(trifluoromethyl)pyridin-2-yl)acetamide], the inhibition at 1 µM in experiment [1] and in experiment [2] was less than 30% each time.
On to `COc1ccc(-n2c(=NC#N)n(C)c3cnc4ccc(-c5cccc(C)c5)cc4c32)cn1` [Example 29, N-(1-(6-methoxypyridin-3-yl)-3-methyl-8-m-tolyl-1H-imidazo[4,5-c]quinolin-2(3H)-ylidene)cyanamide], for which the inhibition at 1 µM in experiment [1] is 30 to 70%; in experiment [2], less than 30%.
For the molecule `COc1ccc(-n2c(=NC#N)n(C)c3cnc4ccc(-c5cncc6ccccc56)cc4c32)cn1` [Example 35, N-(8-(isoquinolin-4-yl)-1-(6-methoxypyridin-3-yl)-3-methyl-1H-imidazo[4,5-c]quinolin-2(3H)-ylidene)cyanamide], the inhibition at 1 µM in experiment [1] was not below 70%; in experiment [2] it was 30 to 70%.
For the molecule `COc1ccc(-n2c(=NC#N)n(C)c3cnc4ccc(-c5ccc6ncccc6c5)cc4c32)c(OC)c1` [Example 103, N-(1-(2,4-dimethoxyphenyl)-3-methyl-8-(quinolin-6-yl)-1H-imidazo[4,5-c]quinolin-2(3H)-ylidene)cyanamide], the IC50 in experiment [1] and in experiment [2] was not above 0.5 µM in each case.
For `COc1ccc(-n2c(=NC#N)n(C)c3cnc4ccc(-c5cnc(N)c(C(F)(F)F)c5)cc4c32)cn1` [Example 1, N-(8-(6-amino-5-(trifluoromethyl)pyridin-3-yl)-1-(6-methoxypyridin-3-yl)-3-methyl-1H-imidazo[4,5-c]quinolin-2(3H)-ylidene)cyanamide], the half-inhibitory concentration (IC50) in experiment [1] and in experiment [2] was not above 0.5 µM in each case.
For `COc1ccc(-n2c(=NC#N)n(C)c3cnc4ccc(-c5cccc(F)c5)cc4c32)cn1` [Example 40, N-(8-(3-fluorophenyl)-1-(6-methoxypyridin-3-yl)-3-methyl-1H-imidazo[4,5-c]quinolin-2(3H)-ylidene)cyanamide], the inhibition at 1 µM in experiment [1] is 30 to 70%; in experiment [2] it was less than 30%.
As to `Cn1c(=NC#N)n(-c2ccc(C(C)(C)C#N)cc2)c2c3cc(-c4cc(C(F)(F)F)ccc4F)ccc3ncc21` [Example 87, N-(1-(4-(2-cyanopropan-2-yl)phenyl)-8-(2-fluoro-5-(trifluoromethyl)phenyl)-3-methyl-1H-imidazo[4,5-c]quinolin-2(3H)-ylidene)cyanamide], the figures for the inhibition at 1 µM in experiment [1] and in experiment [2] were 30 to 70% and less than 30%, respectively.
For `COc1ccc(-n2c(=NC#N)n(C)c3cnc4ccc(-c5cnc(N)c(C(F)(F)F)c5)cc4c32)c(OC)n1` [Example 98, N-(8-(6-amino-5-(trifluoromethyl)pyridin-3-yl)-1-(2,6-dimethoxypyridin-3-yl)-3-methyl-1H-imidazo[4,5-c]quinolin-2(3H)-ylidene)cyanamide] the same measures were not below 70% and not below 70%.
As to `Cn1c(=NC#N)n(-c2ccc(C(C)(C)C#N)nc2)c2c3cc(-c4cnc(NC(=O)OC(C)(C)C)c(C(F)(F)F)c4)ccc3ncc21` [Example 122, tert-butyl 5-(2-(cyanoimino)-1-(6-(2-cyanopropan-2-yl)pyridin-3-yl)-3-methyl-2,3-dihydro-1H-imidazo[4,5-c]quinolin-8-yl)-3-(trifluoromethyl)pyridin-2-ylcarbamate], the inhibition at 1 µM in experiment [1] was not below 70%; in experiment [2], 30 to 70%.
For `Cn1c(=NC#N)n(-c2ccc(C(C)(C)C#N)cc2)c2c3cc(-c4ccc5cc[nH]c5c4)ccc3ncc21` [Example 94, N-(1-(4-(2-cyanopropan-2-yl)phenyl)-8-(1H-indol-6-yl)-3-methyl-1H-imidazo[4,5-c]quinolin-2(3H)-ylidene)cyanamide], the IC50 in experiment [1] and in experiment [2] was not above 0.5 µM throughout.
Regarding `Cn1c(=NC#N)n(-c2ccc(C(C)(C)C#N)nc2)c2c3cc(-c4ccc5ccccc5c4)ccc3ncc21` [Example 62, N-(1-(6-(2-cyanopropan-2-yl)pyridin-3-yl)-3-methyl-8-(naphthalen-2-yl)-1H-imidazo[4,5-c]quinolin-2(3H)-ylidene)cyanamide], the inhibition at 1 µM in experiment [1] and in experiment [2] was 30 to 70% in each case.
Take `COc1ncc(-c2ccc3ncc4c(c3c2)n(-c2ccc(C(C)(C)C#N)cc2)c(=NC#N)n4C)cc1NS(C)(=O)=O` [Example 127, N-(5-(2-(cyanoimino)-1-(4-(2-cyanopropan-2-yl)phenyl)-3-methyl-2,3-dihydro-1H-imidazo[4,5-c]quinolin-8-yl)-2-methoxypyridin-3-yl)methanesulfonamide]: the inhibition at 1 µM in experiment [1] is not below 70%; in experiment [2] it was 30 to 70%.
For `COc1ccc(-n2c(=NC#N)n(C)c3cnc4ccc(-c5ccc(SC(C)C)cc5)cc4c32)cn1` [Example 37, N-(8-(4-(isopropylthio)phenyl)-1-(6-methoxypyridin-3-yl)-3-methyl-1H-imidazo[4,5-c]quinolin-2(3H)-ylidene)cyanamide] the same measures were 30 to 70% and less than 30%.
As for `Cn1c(=NC#N)n(-c2ccc(C(C)(C)C#N)cc2)c2c3cc(-c4cnc(N)c(C(F)(F)F)c4)ccc3ncc21` [Example 6, N-(8-(6-amino-5-(trifluoromethyl)pyridin-3-yl)-1-(4-(2-cyanopropan-2-yl)phenyl)-3-methyl-1H-imidazo[4,5-c]quinolin-2(3H)-ylidene)cyanamide], the half-maximal inhibitory concentration (IC50) in experiment [1] and in experiment [2] was not above 0.5 µM throughout.
Turning to `Cn1c(=NC#N)n(-c2ccc(C(C)(C)C#N)nc2)c2c3cc(-c4ccc5ncccc5c4)ccc3ncc21` [Example 56, N-(1-(6-(2-cyanopropan-2-yl)pyridin-3-yl)-3-methyl-8-(quinolin-6-yl)-1H-imidazo[4,5-c]quinolin-2(3H)-ylidene)cyanamide], the inhibition at 1 µM in experiment [1] was not below 70%; in experiment [2], 30 to 70%.
`Cn1c(=NC#N)n(-c2ccc(C(C)(C)C#N)cc2)c2c3cc(-c4ccc(N5CCOCC5)nc4)ccc3ncc21` [Example 90, N-(1-(4-(2-cyanopropan-2-yl)phenyl)-3-methyl-8-(6-morpholinopyridin-3-yl)-1H-imidazo[4,5-c]quinolin-2(3H)-ylidene)cyanamide]: the inhibition at 1 µM in experiment [1] is not below 70%; in experiment [2], 30 to 70%.
On to `COc1ccc(-c2ccc3ncc4c(c3c2)n(-c2ccc(OC)nc2)c(=NC#N)n4C)cn1` [Example 48, N-(1,8-bis(6-methoxypyridin-3-yl)-3-methyl-1H-imidazo[4,5-c]quinolin-2(3H)-ylidene)cyanamide], for which the figures for the inhibition at 1 µM in experiment [1] and in experiment [2] were not below 70% and 30 to 70%, respectively.
As for `COc1ncc(-c2ccc3ncc4c(c3c2)n(-c2ccc(C(C)(C)C#N)nc2)c(=NC#N)n4C)cc1NS(C)(=O)=O` [Example 126, N-(5-(2-(cyanoimino)-1-(6-(2-cyanopropan-2-yl)pyridin-3-yl)-3-methyl-2,3-dihydro-1H-imidazo[4,5-c]quinolin-8-yl)-2-methoxypyridin-3-yl)methane sulfonamide], the IC50 in experiment [1] and in experiment [2] was not above 0.5 µM throughout.
